These results are taken from patent publication US10316017B2, “COT modulators and methods of use thereof” (Gilead Sciences, Inc., priority 2015, dated 2019).

The pEC50 is the negative decadic logarithm of the EC50, by convention in mol/L. As usually defined, the pIC50 is the negative decadic logarithm of the IC50, by convention in mol/L.

Structures are written as SMILES. pEC50, pIC50: −log10 of the molar value. Where two headings read alike, the source gives them in different places. Where only a bound is given, the exact number is not on record here.

Experiment [1] concerns TNFα production in LPS-stimulated human monocytes. The experiment in a line: Cot Monocyte TNFα Cell Based Assay. The note with it: Homo sapiens, Monocyte, read-out: EC50 TNF. An outline of the steps: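 Percent-of-control values derive from TR-FRET ratios of TNFα in spun-down media, referenced to unstimulated and LPS-stimulated wells. Exposure: 1 h compound preincubation, then 50 pg/ml LPS for 4 h, both at 37 °C, with 0.5% final DMSO.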

Experiment [2] has as its target T1, human Cot catalytic domain (30-397 amino acids) (Homo sapiens, UniProt P41279).
T1 construct: Purified recombinant human Cot catalytic domain (30-397 amino acids) was purchased from Cama Biosciences; purchased Cama Biosciences (so in the source)
The experiment in a line: High Throughput Cot Biochemical Assay (KinEASE TR-FRET). The note with it: read-out: IC50 HTRF. Summed up: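 Phosphorylation of 1 μM XL665-STK3 peptide by 5 nM Cot catalytic domain was measured by time-resolved FRET using a europium […] antibody. ATP was 400 μM; buffer was 10 mM MOPS pH 7.0 with Mg2+ and DTT.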
In general terms: Time-resolved FRET reads energy transfer from a long-lived donor to a nearby acceptor.

The mark [3] stands for this setting: TNFα in LPS-stimulated human monocytes.
[4] abbreviates: Cot biochemical HTRF (KinEASE TR-FRET) assay.
Where [5] appears, read: LPS-stimulated human monocytes, TNFα TR-FRET.
Setting [6] is: Cot KinEASE TR-FRET, 400 μM ATP.
Where [7] appears, read: Cot KinEASE TR-FRET (HTRF) biochemical assay, 400 μM ATP.

T1 sequence (P41279 30-397): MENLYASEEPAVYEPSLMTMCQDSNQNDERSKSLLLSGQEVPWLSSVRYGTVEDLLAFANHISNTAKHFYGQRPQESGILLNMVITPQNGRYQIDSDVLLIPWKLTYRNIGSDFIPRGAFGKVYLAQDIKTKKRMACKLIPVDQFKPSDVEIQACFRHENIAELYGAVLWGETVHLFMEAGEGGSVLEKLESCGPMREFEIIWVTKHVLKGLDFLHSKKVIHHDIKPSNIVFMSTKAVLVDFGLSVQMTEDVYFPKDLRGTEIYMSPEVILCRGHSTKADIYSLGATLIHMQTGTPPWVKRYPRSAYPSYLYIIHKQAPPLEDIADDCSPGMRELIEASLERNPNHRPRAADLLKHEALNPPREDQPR

Regarding `CC(C)(C)N1CCC(n2cc([C@@H](Nc3cc(Cl)c4ncc(C#N)c(Nc5cccc(C#N)c5)c4c3)c3ccc(Cl)cc3)nn2)CC1` [Example 753, (S)-6-(((1-(1-(tert-butyl)piperidin-4-yl)-1H-1,2,3-triazol-4-yl)(4-chlorophenyl)methyl)amino)-8-chloro-4-((3-cyanophenyl)amino)quinoline-3-carbonitrile], in experiment [1] (setting [3]), the pEC50 was 5.78. Besides, in experiment [2] (setting [4]), the pIC50 was 7.06.
As for `[2H]C(Nc1cc(Cl)c2ncc(C#N)c(NCC(C)(C)C)c2c1)(c1cn(C2(C3CC3)CC2)nn1)c1ccccc1Cl` (centres unmarked) [Example 958, 6-(((1-([1,1'-bi(cyclopropan)]-1-yl)-1H-1,2,3-triazol-4-yl)(2-chlorophenyl)methyl-d)amino)-8-chloro-4-(neopentylamino)quinoline-3-carbonitrile], the pEC50 in experiment [1] (setting [5]) was 6.34. Further, in experiment [2] (setting [6]), the negative logarithm of the IC50 (pIC50) is 7.51.
Take `CCOc1ccc(Nc2c(C#N)cnc3c(Cl)cc(N[C@@H](c4ccc(Cl)cc4)c4cn(C5CCN(C(C)(C)C)CC5)nn4)cc23)cc1Cl` [Example 655, (S)-6-(((1-(1-(tert-butyl)piperidin-4-yl)-1H-1,2,3-triazol-4-yl)(4-chlorophenyl)methyl)amino)-8-chloro-4-((3-chloro-4-ethoxyphenyl)amino)quinoline-3-carbonitrile]: the pEC50 in experiment [1] (setting [3]) is 4.98. Besides, in experiment [2] (setting [4]), the pIC50 is 6.49.
On the same counts, the results for `CCN1CC2(CC(n3cc([C@@H](Nc4cc(Cl)c5ncc(C#N)c(Nc6ccc(F)c(Cl)c6)c5c4)c4ccccc4)nn3)C2)C1` [Example 774] are 6.90 and 8.52.
Turning to `Cn1cc(C(Nc2cc(Cl)c3ncc(C#N)c(Nc4ccc(F)c(Cl)c4)c3c2)c2ccc(F)cc2)cn1` (centres unmarked) [Example 853, 8-chloro-4-((3-chloro-4-fluorophenyl)amino)-6-(((4-fluorophenyl)(1-methyl-1H-pyrazol-4-yl)methyl)amino)quinoline-3-carbonitrile], the pEC50 in experiment [1] (setting [3]) was less than 6.00. Further, the negative-log IC50 (pIC50) in experiment [2] (setting [4]) is 5.20.
`CC(C)(C)N1CCC(n2cc([C@@H](Nc3cc(Cl)c4ncc(C#N)c(Nc5ccc(F)c(Cl)c5)c4c3)c3cccc(NS(C)(=O)=O)c3)nn2)CC1` [Compound 25]: the negative logarithm of the EC50 (pEC50) in experiment [1] (setting [3]) was 6.01. In addition, the pIC50 in experiment [2] (setting [7]) is 8.40.
Take `[2H]C(Nc1cc(Cl)c2ncc(C#N)c(NC3C(C)CCCC3C)c2c1)(c1ccc(F)cc1)c1cn(C2CC2)nn1` (stereo in doubt) [Example 320, 8-chloro-6-(((S)(1-cyclopropyl-1H-1,2,3-triazol-4-yl)(4-fluorophenyl)methyl-d)amino)-4-((2,6-dimethylcyclohexyl)amino) quinoline-3-carbonitrile]: in experiment [1] (setting [3]), the negative-log EC50 (pEC50) is 5.19. Also, the pIC50 in experiment [2] (setting [7]) is 5.94.
Take `N#Cc1cnc2c(Cl)cc(N[C@H](c3c[nH]nn3)c3ccc(F)cc3F)cc2c1Nc1cnc(F)c(F)c1` [Example 460, (S)-8-chloro-6-(((2,4-difluorophenyl)(1H-1,2,3-triazol-4-yl)methyl)amino)-4-((5,6-difluoropyridin-3-yl)amino)quinoline-3-carbonitrile]: the pEC50 in experiment [1] (setting [3]) is 5.90. Besides, the negative logarithm of the IC50 (pIC50) in experiment [2] (setting [4]) is 7.64.
On the same counts, the results for `CN(C)Cc1ccccc1[C@H](Nc1cc(Cl)c2ncc(C#N)c(Nc3ccc(F)c(Cl)c3)c2c1)c1cn(C2CCN(C(C)(C)C)CC2)nn1` [Example 720, (S)-6-(((1-(1-(tert-butyl)piperidin-4-yl)-1H-1,2,3-triazol-4-yl)(2-((dimethylamino)methyl)phenyl)methyl)amino)-8-chloro-4-((3-chloro-4-fluorophenyl)amino)quinoline-3-carbonitrile] are 5.40 and 7.14.
On to `Cc1c(-c2ccn(C)n2)cccc1[C@H](Nc1cc(C#N)c2ncc(C#N)c(NCC(C)(C)C)c2c1)c1cn(C2(C(F)(F)F)CC2)nn1` [Example 1143, (S)-6-(((2-methyl-3-(1-methyl-1H-pyrazol-3-yl)phenyl)(1-(1-(trifluoromethyl)cyclopropyl)-1H-1,2,3-triazol-4-yl)methyl)amino)-4-(neopentylamino)quinoline-3,8-dicarbonitrile], for which the negative logarithm of the EC50 (pEC50) in experiment [1] (setting [5]) is 6.62. Moreover, the pIC50 in experiment [2] (setting [6]) was 8.15.
Take `CC(C)(C)N1CCC(n2cc([C@@H](Nc3cc(Cl)c4ncc(C#N)c(Nc5cc(Cl)cc(Cl)c5)c4c3)c3ccc(Cl)cc3)nn2)CC1` [Example 756, (S)-6-(((1-(1-(tert-butyl)piperidin-4-yl)-1H-1,2,3-triazol-4-yl)(4-chlorophenyl)methyl)amino)-8-chloro-4-((3,5-dichlorophenyl)amino)quinoline-3-carbonitrile]: in experiment [1] (setting [3]), the negative logarithm of the EC50 (pEC50) was 5.53. Further, the pIC50 in experiment [2] (setting [4]) was 6.97.
As for `[2H][C@](Nc1cc(Cl)c2ncc(C#N)c(NC3CC3)c2c1)(c1ccc(F)cc1)c1cn(C2CC2)nn1` [Example 220, (S)-8-chloro-6-(((1-cyclopropyl-1H-1,2,3-triazol-4-yl)(4-fluorophenyl)methyl-d)amino)-4-(cyclopropylamino)quinoline-3-carbonitrile], in experiment [1] (setting [3]), the negative logarithm of the EC50 (pEC50) is 5.79. Further, the negative-log IC50 (pIC50) in experiment [2] (setting [7]) was 6.53.
Regarding `CC(C)(C)N1CCC(n2cc([C@@H](Nc3cc(Cl)c4ncc(C#N)c(NCc5ccccc5)c4c3)c3ccc(Cl)cc3)nn2)CC1` [Example 706, (S)-4-(benzylamino)-6-(((1-(1-(tert-butyl)piperidin-4-yl)-1H-1,2,3-triazol-4-yl)(4-chlorophenyl)methyl)amino)-8-chloroquinoline-3-carbonitrile], the pEC50 in experiment [1] (setting [3]) was 4.89. In addition, the negative logarithm of the IC50 (pIC50) in experiment [2] (setting [4]) was 7.02.
In the case of `N#Cc1cnc2c(Cl)cc(N[C@@H](c3ccc(Cl)cc3)c3c[nH]nn3)cc2c1Nc1cnc(F)c(F)c1` [Example 495, (S)-8-chloro-6-(((4-chlorophenyl)(1H-1,2,3-triazol-4-yl)methyl)amino)-4-((5,6-difluoropyridin-3-yl)amino) quinoline-3-carbonitrile], the negative-log EC50 (pEC50) in experiment [1] (setting [3]) was 6.19. Further, the negative-log IC50 (pIC50) in experiment [2] (setting [4]) is 7.49.
`CC(C)(C)CNc1c(C#N)cnc2c(F)cc(N[C@H](c3cn(C4CC4)nn3)c3ccccc3Cl)cc12` [Example 1015, (S)-6-(((2-chlorophenyl)(1-cyclopropyl-1H-1,2,3-triazol-4-yl)methyl)amino)-8-fluoro-4-(neopentylamino)quinoline-3-carbonitrile]: the negative logarithm of the EC50 (pEC50) in experiment [1] (setting [5]) is 6.34. The pIC50 in experiment [2] (setting [6]) is 7.85.
Take `CC(C)n1cc([C@@H](Nc2cc(Cl)c3ncc(C#N)c(N[C@@H](c4ccccc4)C(F)(F)F)c3c2)c2ccc(F)cc2)nn1` [Example 364, 8-chloro-6-(((S)-(4-fluorophenyl)(1-isopropyl-1H-1,2,3-triazol-4-yl)methyl)amino)-4-(((S)-2,2,2-trifluoro-1-phenylethyl)amino)quinoline-3-carbonitrile]: the pEC50 in experiment [1] (setting [3]) was 6.20. The negative-log IC50 (pIC50) in experiment [2] (setting [7]) was 7.32.
Take `CC(C)(C)CNc1c(C#N)cnc2c(Cl)cc(N[C@@H](c3ccc(F)cc3)c3cn(C4(C#N)CC4)nn3)cc12` [Example 989, (S)-8-chloro-6-(((1-(1-cyanocyclopropyl)-1H-1,2,3-triazol-4-yl)(4-fluorophenyl)methyl)amino)-4-(neopentylamino)quinoline-3-carbonitrile]: the negative logarithm of the EC50 (pEC50) in experiment [1] (setting [5]) was 6.95. For the same molecule, the pIC50 in experiment [2] (setting [6]) is 7.92.
With `N#Cc1cnc2c(Cl)cc(N[C@@H](c3ccccc3)c3cn(C4CNCC(F)(F)C4)nn3)cc2c1Nc1ccc(F)c(Cl)c1` (stereo partly drawn) [Example 748, 8-chloro-4-((3-chloro-4-fluorophenyl)amino)-6-(((1S)-(1-(5,5-difluoropiperidin-3-yl)-1H-1,2,3-triazol-4-yl)(phenyl)methyl)amino) quinoline-3-carbonitrile], the pEC50 in experiment [1] (setting [3]) was 6.21. Further, the pIC50 in experiment [2] (setting [4]) was 7.22.
On the same counts, the results for `CC(C)(C)N1CCC(n2cc([C@@H](Nc3cc(Cl)c4ncc(C#N)c(Nc5cncc(Cl)c5)c4c3)c3ccccc3)nn2)CC1` [Example 780, (S)-6-(((1-(1-(tert-butyl)piperidin-4-yl)-1H-1,2,3-triazol-4-yl)(phenyl)methyl)amino)-8-chloro-4-((5-chloropyridin-3-yl)amino)quinoline-3-carbonitrile] are 6.06 and 7.70.
`[2H][C@@](Nc1cc(Cl)c2ncc(C#N)c(NCC(C)(C)C)c2c1)(c1cn(C23CC(C2)C3)nn1)c1ccccc1Cl` [Example 86, (S)-6-(((1-(bicyclo[1.1.1]pentan-1-yl)-1H-1,2,3-triazol-4-yl)(2-chlorophenyl)methyl-d)amino)-8-chloro-4-(neopentylamino) quinoline-3-carbonitrile]: the pEC50 in experiment [1] (setting [3]) was 6.61. For the same molecule, the negative-log IC50 (pIC50) in experiment [2] (setting [7]) is 7.66.
On to `[2H]C(Nc1cc(Cl)c2ncc(C#N)c(N[C@H](CC)c3ccccc3)c2c1F)(c1cccc(C#N)c1)c1cn(C2CC2)nn1` (some centres unmarked) [Compound 36], for which, in experiment [1] (setting [3]), the negative-log EC50 (pEC50) is less than 5.00. Further, in experiment [2] (setting [7]), the negative-log IC50 (pIC50) was less than 5.00.
In the case of `[2H][C@@](Nc1cc(Cl)c2ncc(C#N)c(N[C@@H]3CCCC[C@@H]3NC(=O)OC(C)(C)C)c2c1)(c1ccc(F)cc1)c1cn(C2CC2)nn1` [Example 229, tert-butyl ((1S,2R)-2-((8-chloro-3-cyano-6-(((S)-(1-cyclopropyl-1H-1,2,3-triazo1-4-yl)(4-fluorophenyl)methyl-d)amino)quinolin-4-yl)amino)cyclohexyl) carbamate], in experiment [1] (setting [3]), the pEC50 was less than 5.00. Moreover, the pIC50 in experiment [2] (setting [7]) is 5.58.
